Test results as given in patent publication US4273777A, “Methods of treating mammals suffering from inflammation and pain” (Laboratorios Bago S.A., priority 1980, dated 1981).

Experiments:
[1] = Influence on the gastro-intestinal tract (ulceration of the gastric epithelium, pylorus ligated, Shay et al.); format: in vivo, rat (Sprague Dawley)
Procedure: Influence on the gastro-intestinal tract
Ten male rats of Sprague Dawley strain, weighing 200-300 g were used for each compound tested. According to the method of Shay et al. (Shay, H., Komapov. S. A., Feb. S. S., Meranir, D., Gruenstein, M., Siplet, H. Gastroenterology 5, 43, 1945), under anesthesia, the pylorus was ligated and 4 hours later test compounds were orally administered. The animal was sacrificed 1 hour after compound administration. The stomach was removed and examined for macroscopic damage. The ulceration of the gastric epithelium was evaluated by the following evaluation: 0=no hemorrhage sites; 1=some isolated hemorrhagic sites; 2=redness of the gastric epithelium; 3=1 to 5 small ulcers with a diameter smaller than 3 mm; 4=many small ulcers; 5=ulcers--greater than 3 mm; 6=perforated ulcer.

[2] = Carrageenin induced edema test (anti-inflammatory activity); design: species or system rat (Sprague Dawley); conditions: rat, in vivo
Procedure: Anti-inflammatory Activity (Carrageenin induced edema test)
Fifteen to twenty male rats of Sprague Dawley strain weighing 150-200 g, were employed for each compound tested. 0.1 ml of 1% carrageenin saline suspension was injected into the subplantar region of the right hind-paw. The test compounds were orally administered 30 minutes prior to the injection of carrageenin and the foot volume was determined 1, 3 and 5 hours after the injection of carrageenin. The percent swelling in the foot was obtained by comparing the volume before and after the injection of carrageenin, and the rate of inhibition in the treated animals was calculated.

[3] = Tail pressure test (analgesic activity); format: in vivo, mouse (Rockland); conditions: oral; control (water) 0; dose mg/kg: ASA 100, pivaloyloxymethyl TPA ester 166 and 66, CPA 50, TPA 47, phthalidyl CPA ester 72, pivaloyloxymethyl CPA ester 69, xylyl anthranylates 77 (phthalidyl)/74 (pivaloyloxymethyl), TAA 50, its phthalidyl ester 73.5, pivaloyloxymethyl ester 82
Procedure: Tail pressure test: Ten male mice of Rockland strain weighing 20-25 g were used for each compound tested. The response threshold on applying pressure to the tail was determined with an analgesy meter at 15 and 60 minutes after oral administration of the test compound. The pressure at which a struggle was elicited was read.

[4] = Randall-Selitto test (analgesic activity, carrageenin inflamed foot); format: in vivo, mouse (Rockland); conditions: oral, 30 minutes before carrageenin; control (water) 0; doses as for tail pressure (pivaloyloxymethyl TPA ester 166 mg/kg, 66 mg/kg)
Procedure: Randall-Selitto's method: Ten male mice of Rockland strain weighing 25 g were used for each compound tested. 0.1 ml of 1% carrageenin saline suspension was injected into the subplantar region of the right foot. The test compounds were orally administered 30 minutes before the injection. At hourly intervals for 3 hours after the carrageenin injection, the pain threshold for the inflammed feet was measured determining the amount of pressure with an analgesy meter.

[5] = oral, 1 hour after compound, score 0=no hemorrhage sites to 6=perforated ulcer, control 3.0, dose mg/kg: phenylbutazone 75, ASA 100, TPA 47, pivaloyloxymethyl TPA ester 66, CPA 150, phthalidyl CPA ester 216, pivaloyloxymethyl CPA ester 207, xylyl anthranylates 186/196, TAA 60, its esters 88/84.5
[6] = versus control (distilled water) 3.0, oral

SMILES	Evaluation (ulceration of the gastric epithelium) [1, 5]	Evaluation (ulceration of the gastric epithelium) ([1]; rat, in vivo, po)	Increase (of ulceration evaluation over control) ([1]; rat, in vivo, po)	Increase (of ulceration evaluation over control) [1, 6]	anti-inflammatory activity, in words [2]	Relative strength, Tail pressure test [3]	Relative strength, Randall-Selitto test [4]
Cc1c(Cl)cccc1Nc1ncccc1C(=O)OCOC(=O)C(C)(C)C [Pivaloyloxymethyl 2-(3'-chloro-2'-methylanilino)-pyridine-3-carboxylate]	3.0	–	–	–	–	–	–
CCCCC1C(=O)N(c2ccccc2)N(c2ccccc2)C1=O [Phenylbutazone, reference compound]	–	5.5	2.5	–	–	–	–
Cc1c(Cl)cccc1Nc1ncccc1C(=O)OC1OC(=O)c2ccccc21 (stereo not shown) [Phthalydil 2(3'-chloro-2'-methylanilino)pyridine 3-carboxylate]	3.6	–	–	0.6	–	–	–
CC(C)(C)C(=O)OCOC(=O)c1cccnc1Nc1cccc(C(F)(F)F)c1 [Pivaloyloxymethyl 2-(3'-trifluoromethylanilino)-pyridine-3-carboxylate]	3.2	–	–	0.2	act as anti-inflammatory agent more than as antinociceptive agents	–	–
O=C(OC1OC(=O)c2ccccc21)c1ccccc1Nc1cccc(C(F)(F)F)c1 (stereo not shown) [Phthalidyl N-(3'-trifluorotolyl) anthranylate]	3.5	–	–	0.5	–	0.74	10.6
CC(C)(C)C(=O)OCOC(=O)c1ccccc1Nc1cccc(C(F)(F)F)c1 [Pivaloyloxymethyl N-(3'-trifluorotolyl) anthranylate]	3.6	–	–	0.6	–	–	–
Cc1cccc(Nc2ccccc2C(=O)OC2OC(=O)c3ccccc32)c1C (stereo not shown) [Phthalidyl N-(2',3'-xylyl) anthranylate]	3.3	–	–	0.3	–	0.56	1.37
CC(=O)Oc1ccccc1C(=O)O [Acetylsalicylic acid (ASA), Acetylsalicylic acid, reference compound]	–	4.1	1.1	–	–	–	–
O=C(O)c1cccnc1Nc1cccc(C(F)(F)F)c1 [2-(3'-trifluoromethyl-anilino)-3-pyridinecarboxylic acid, reference compound]	3.9	–	–	0.9	–	–	–
Cc1cccc(Nc2ccccc2C(=O)OCOC(=O)C(C)(C)C)c1C [Pivaloyloxymethyl N-(2',3'-xylyl) anthranylate]	3.4	–	–	0.4	–	–	–
O=C(O)c1ccccc1Nc1cccc(C(F)(F)F)c1 [N-(3'-trifluorotolyl)-anthranylic acid, reference compound]	4.9	–	–	1.9	–	0.5	5.3
